Patent US6384061B1, “Hydantoin compounds and methods related thereto” (LG Chemical Ltd., priority 2000, dated 2002)

Key:
[1] = test system: intracellular Ras farnesyl transferase, Rat2 cell line; assay: Intracellular Ras farnesyl transferase inhibiting activity in transformed Rat2 cells (35S-methionine labelling, Y13-259 immunoprecipitation, SDS-PAGE); assay type: cell-based; conditions: Rattus norvegicus; transformed Rat2 fibroblast cell line; concentration inhibiting 50% of farnesyl binding of Ras protein; read-out: Ftase CIC50
Procedure, shortened: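 Rat2 fibroblasts transformed with H-Ras, or with H-Ras carrying the K-Ras polybasic lysine C-terminus, were treated with compound (1% DMSO). After 4 h they were labelled for 20 h with 150 μCi/ml 35S-methionine. Lysates were immunoprecipitated with Y13-259, run on 13.5% SDS-PAGE and autoradiographed; CIC50 is the concentration halving farnesylated versus unfarnesylated Ras band intensity.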

[2] = biological target: T1, Ras farnesyl transferase (Homo sapiens, UniProt P49354+P49356); assay: Ras farnesyl transferase inhibiting activity (filter-binding, tritium-farnesylpyrophosphate, Ras-CVLS substrate); assay type: biochemical; conditions: recombinant Ras farnesyl transferase, 30 minutes at 37° C., read-out: Ftase IC50
T1 construct: made in house

[3] = biological target: T2, Geranylgeranyl transferase (Bos taurus, UniProt P29702+Q5EAD5); assay: Geranylgeranyl transferase inhibiting activity (geranylgeranyl pyrophosphate, Ras-CVIL substrate); assay type: biochemical; conditions: geranylgeranyl transferase purified from bovine brain, read-out: GGtase IC50
T2 construct: Geranylgeranyl transferase was purified from bovine brain; from tissue; host or cells: bovine brain
Procedure, shortened: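 Bovine-brain-purified enzyme run as in the farnesyl transferase assay, with geranylgeranyl pyrophosphate and Ras-CVIL substrate protein under similar reaction conditions.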

Structure (SMILES)	IC50 [2] [µM]	IC50 [3] [µM]	IC50 [1] [µM]
CC1(c2cccc3ccccc23)C(=O)N(CCCn2ccnc2)C(=O)N1Cc1ccc(Br)cc1 (stereo not drawn) [Compound 21, 1-(4-bromo-benzyl)-3-(3-imidazol-1-yl-propyl)-5-methyl-5-naphthalen-1-yl-imidazolidin-2,4-dione]	0.15	> 10	< 20
CC1(c2cccc3ccccc23)C(=O)N(CCCc2cncn2Cc2ccc(C#N)cc2)C(=O)N1Cc1cccc(C#N)c1 (stereo not drawn) [Compound 54, 4-(5-{3-[3-(3-cyano-benzyl)-4-methyl-4-naphthalen-1-yl-2,5-dioxo-imidazolidin-1-yl]-propyl}-imidazol-1-ylmethyl)-benzonitrile]	0.05	> 10	< 20
CSCCC(NC(=O)CN1C(=O)N(Cc2cncn2Cc2ccc(C#N)cc2)C(=O)C1(C)c1cccc2ccccc12)C(=O)O (stereo not drawn) [Compound 8, 2-(2-{3-[3-(4-cyano-benzyl)-imidazol-4-yl-methyl]-5-methyl-5-naphthalen-1-yl-2,4-dioxo-imidazolidin-1-yl}-acetylamino)-4-methylsulfanyl-butyric acid]	0.014	> 10	< 20

Further lines, with some results ahead:

IC50 [2] [µM]	IC50 [3] [µM]	Structure (SMILES)	IC50 [1] [µM]
0.016	> 10	COC(=O)C(CCSC)NC(=O)CN1C(=O)N(CCCc2cncn2Cc2ccc(C#N)cc2)C(=O)C1(C)c1cccc2ccccc12 (stereo not drawn) [Compound 57, 2-[2-(3-{3-[3-(4-cyanobenzyl)-3H-imidazol-4-yl]-propyl}-5-methyl-5-naphthalen-1-yl-2,4-dioxo-imidazolidin-1-yl)acetylamino]-4-methylsulfanyl-butyric acid methyl ester]	400
0.16	> 10	CCN1C(=O)N(Cc2cncn2Cc2ccc(C#N)cc2)C(=O)C1(C)c1cccc2ccccc12 (stereo not drawn) [Compound 61, 4-[5-(3-ethyl-4-methyl-4-naphthalen-1-yl-2,5-dioxo-imidazolidin-1-ylmethyl)-imidazol-1-ylmethyl]-benzonitrile]	< 20
